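Tested at 5 concentrations; 48 h exposure; 96-well plates; endpoints linearly interpolated, else capped at highest concentration. GI50: concentration for 50% inhibition of growth. The concentration for full growth arrest is given as TGI.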
How the values were obtained:
Assay in all cases: NCI-60 cell line screen, 48 h
KM12 colon = test system: KM12 colon
UO-31 renal = test system: UO-31 renal
TK-10 renal = test system: TK-10 renal
SK-MEL-2 melanoma = test system: SK-MEL-2 melanoma
OVCAR-8 ovarian = test system: OVCAR-8 ovarian
A498 renal = test system: A498 renal
IGROV1 ovarian = test system: IGROV1 ovarian
SK-MEL-28 melanoma = test system: SK-MEL-28 melanoma
SK-MEL-5 melanoma = test system: SK-MEL-5 melanoma
CCRF-CEM leukemia = test system: CCRF-CEM leukemia
DU-145 prostate = test system: DU-145 prostate
HL-60(TB) leukemia = test system: HL-60(TB) leukemia
BT-549 breast = test system: BT-549 breast
M14 melanoma = test system: M14 melanoma
LOX IMVI melanoma = test system: LOX IMVI melanoma
K-562 leukemia = test system: K-562 leukemia
786-0 renal = test system: 786-0 renal
SF-268 CNS = test system: SF-268 CNS
T-47D breast = test system: T-47D breast
NCI-H226 lung = test system: NCI-H226 lung
COLO 205 colon = test system: COLO 205 colon
ACHN renal = test system: ACHN renal
SR leukemia = test system: SR leukemia
HOP-92 NSCLC = test system: HOP-92 NSCLC
MDA-MB-435 = test system: MDA-MB-435
MCF7 breast = test system: MCF7 breast
NCI/ADR-RES ovarian = test system: NCI/ADR-RES ovarian
PC-3 prostate = test system: PC-3 prostate
MALME-3M melanoma = test system: MALME-3M melanoma
UACC-62 melanoma = test system: UACC-62 melanoma
SW-620 colon = test system: SW-620 colon
SF-539 CNS = test system: SF-539 CNS
HOP-62 NSCLC = test system: HOP-62 NSCLC
OVCAR-3 ovarian = test system: OVCAR-3 ovarian
UACC-257 melanoma = test system: UACC-257 melanoma
OVCAR-4 ovarian = test system: OVCAR-4 ovarian
A549 NSCLC = test system: A549 NSCLC
SNB-19 CNS = test system: SNB-19 CNS
NCI-H23 lung = test system: NCI-H23 lung
SNB-75 CNS = test system: SNB-75 CNS
SF-295 CNS = test system: SF-295 CNS
U251 CNS = test system: U251 CNS
RXF 393 renal = test system: RXF 393 renal
HCT-15 colon = test system: HCT-15 colon
HCC-2998 colon = test system: HCC-2998 colon
OVCAR-5 ovarian = test system: OVCAR-5 ovarian
HS 578T breast = test system: HS 578T breast
HCT-116 colon = test system: HCT-116 colon
NCI-H460 lung = test system: NCI-H460 lung
MDA-MB-231 breast = test system: MDA-MB-231 breast
RPMI-8226 leukemia = test system: RPMI-8226 leukemia
MOLT-4 leukemia = test system: MOLT-4 leukemia
HT29 colon = test system: HT29 colon
SN12C renal = test system: SN12C renal
SK-OV-3 ovarian = test system: SK-OV-3 ovarian
EKVX NSCLC = test system: EKVX NSCLC
NCI-H522 lung = test system: NCI-H522 lung

## CC(C)=CCc1cc2c(cc1O)C1=C(C(=O)C3=C(C1=O)S(=O)(=O)CCN3)C(C=C(C)C)O2 (centres undefined)
KM12 colon
  GI50: 2050 nM
  TGI: 6990 nM
UO-31 renal
  GI50: 1820 nM
  TGI: 4590 nM
TK-10 renal
  GI50: 4960 nM
  TGI: 10400 nM
SK-MEL-2 melanoma
  GI50: 1440 nM
  TGI: 5290 nM
OVCAR-8 ovarian
  GI50: 552 nM
  TGI: 2120 nM
A498 renal
  GI50: 3540 nM
  TGI: 5960 nM
IGROV1 ovarian
  GI50: 959 nM
  TGI: 4760 nM
SK-MEL-28 melanoma
  GI50: 541 nM
  TGI: 1920 nM
SK-MEL-5 melanoma
  GI50: 284 nM
  TGI: 660 nM
CCRF-CEM leukemia
  GI50: 696 nM
  TGI: 8980 nM
DU-145 prostate
  GI50: 309 nM
  TGI: 597 nM
HL-60(TB) leukemia
  GI50: 438 nM
  TGI: 1110 nM
BT-549 breast
  GI50: 2310 nM
  TGI: 4780 nM
M14 melanoma
  GI50: 350 nM
  TGI: 1200 nM
LOX IMVI melanoma
  GI50: 492 nM
  TGI: 2060 nM
K-562 leukemia
  GI50: 2240 nM
  TGI: 14600 nM
786-0 renal
  GI50: 2490 nM
  TGI: 7030 nM
SF-268 CNS
  GI50: 917 nM
  TGI: 4740 nM
T-47D breast
  GI50: 714 nM
  TGI: 7150 nM
NCI-H226 lung
  GI50: 1600 nM
  TGI: 5220 nM
COLO 205 colon
  GI50: 640 nM
  TGI: 2410 nM
ACHN renal
  GI50: 2270 nM
  TGI: 5650 nM
SR leukemia
  GI50: 870 nM
  TGI: 10900 nM
HOP-92 NSCLC
  GI50: 3310 nM
  TGI: 7610 nM
MDA-MB-435
  GI50: 61 nM
  TGI: 227 nM
MCF7 breast
  GI50: 354 nM
  TGI: 1310 nM
NCI/ADR-RES ovarian
  GI50: 6660 nM
  TGI: 16700 nM
PC-3 prostate
  GI50: 1600 nM
  TGI: 12800 nM
MALME-3M melanoma
  GI50: 122 nM
  TGI: 397 nM
UACC-62 melanoma
  GI50: 419 nM
  TGI: 1210 nM
SW-620 colon
  GI50: 554 nM
  TGI: 1760 nM
SF-539 CNS
  GI50: 1960 nM
  TGI: 4020 nM
HOP-62 NSCLC
  GI50: 2330 nM
  TGI: 4630 nM
OVCAR-3 ovarian
  GI50: 403 nM
  TGI: 1370 nM
UACC-257 melanoma
  GI50: 482 nM
  TGI: 1500 nM
OVCAR-4 ovarian
  GI50: 469 nM
  TGI: 2440 nM
A549 NSCLC
  GI50: 2230 nM
  TGI: 5590 nM
SNB-19 CNS
  GI50: 651 nM
  TGI: 2640 nM
NCI-H23 lung
  GI50: 700 nM
  TGI: 4010 nM
SNB-75 CNS
  GI50: 1390 nM
  TGI: 3720 nM
SF-295 CNS
  GI50: 2380 nM
  TGI: 5100 nM
U251 CNS
  GI50: 1240 nM
  TGI: 3740 nM
RXF 393 renal
  GI50: 596 nM
  TGI: 2260 nM
HCT-15 colon
  GI50: 1770 nM
  TGI: 4300 nM
HCC-2998 colon
  GI50: 1480 nM
  TGI: 3840 nM
OVCAR-5 ovarian
  GI50: 2730 nM
  TGI: 5930 nM
HS 578T breast
  GI50: 1310 nM
  TGI: 8150 nM
HCT-116 colon
  GI50: 474 nM
  TGI: 1770 nM
NCI-H460 lung
  GI50: 454 nM
  TGI: 2300 nM
MDA-MB-231 breast
  GI50: 374 nM
  TGI: 1610 nM
RPMI-8226 leukemia
  GI50: 3380 nM
  TGI: 10100 nM
MOLT-4 leukemia
  GI50: 718 nM
  TGI: 3990 nM
HT29 colon
  GI50: 634 nM
  TGI: 2220 nM
SN12C renal
  GI50: 294 nM
  TGI: 651 nM
SK-OV-3 ovarian
  GI50: 2980 nM
  TGI: 5540 nM
EKVX NSCLC
  GI50: 1550 nM
  TGI: 6930 nM
NCI-H522 lung
  GI50: 568 nM
  TGI: 1850 nM
